In ChEMBL document CHEMBL1255439 (2010) one finds inhibition, Activity and CFU data, which are given here for one compound.

Activity calls are given as the source filed them. The calls are words filed in the database; no cut-off is given here.

Assay [1] concerns Burkholderia pseudomallei. Put plainly: Antibacterial activity against Burkholderia pseudomallei 1026b infected in mouse AMJ.2 cells assessed as decrease in intracellular bacterial growth at 10 ug/ml after 24 hrs by serial dilution plating technique in presence of 1 U/ml murine recombinant IFN-gamma. The format is functional, organism-based.
Assay [2] deals with Burkholderia pseudomallei. In words: Antibacterial activity against Burkholderia pseudomallei 1026b infected in BALB/c mouse assessed as increase survival rate at 25 mg/kg, ip administered 6 hrs postinfection at 12 hrs interval for 3 days measured on day 20. Type of assay: functional, organism-based. Set-up: dose 25 mg/kg.
Assay [3] deals with Burkholderia pseudomallei. In words: Antibacterial activity against Burkholderia pseudomallei 1026b infected in BALB/c mouse assessed as survival rate at 25 mg/kg, ip administered 6 hrs postinfection at 12 hrs interval for 3 days measured on day 20. Type of assay: functional. The following applies: route intraperitoneal.
Assay [4] concerns Burkholderia pseudomallei. Put plainly: Antibacterial activity against Burkholderia pseudomallei 1026b infected in mouse AMJ.2 cells assessed as decrease in intracellular bacterial growth at 1 ug/ml after 24 hrs by serial dilution plating technique in presence of 100 U/ml murine recombinant IFN-gamma. The format is functional, organism-based.
Assay [5] relates to Burkholderia pseudomallei. Put plainly: Antibacterial activity against Burkholderia pseudomallei 1026b infected in BALB/c mouse assessed as increase in survival rate at 25 mg/kg, ip administered 6 hrs postinfection at 12 hrs interval for 3 days measured on day 60 in presence of murine recombinant IFN-gamma. Set-up: dose 25 mg/kg. Type of assay: functional, organism-based.
The subject of assay [6] is Burkholderia pseudomallei. Put plainly: Antibacterial activity against Burkholderia pseudomallei 1026b infected in BALB/c mouse assessed as protection against bacterial infection at 25 mg/kg, ip administered as single dose 6 hrs postinfection. Type of assay: functional. The following applies: route intraperitoneal.
The subject of assay [7] is Burkholderia pseudomallei. In words: Antibacterial activity against Burkholderia pseudomallei 1026b infected in BALB/c mouse assessed as decrease in bacterial count in spleen at 25 mg/kg, ip administered 6 hrs postinfection at 12 hrs interval for 3 days measured on day 65 in presence of murine recombinant IFN-gamma. The format is functional, organism-based. Further details: dose 25 mg/kg.

The subject of assay [8] is Burkholderia pseudomallei. Put plainly: Antibacterial activity against Burkholderia pseudomallei 1026b infected in mouse AMJ.2 cells assessed as intracellular bacterial count at 10 ug/ml measured on 24 hrs postinfection by serial dilution plating technique (reference value: 2 X 10^4 CFU/ml). The format is functional.
Assay [9] deals with Burkholderia pseudomallei. Put plainly: Antibacterial activity against Burkholderia pseudomallei 1026b infected in mouse AMJ.2 cells assessed as inhibition of bacterial replication at <= 10 ug/ml after 24 hrs by serial dilution plating technique. Type of assay: functional, organism-based.

Consider `CC(C)(O/N=C(\C(=O)N[C@@H]1C(=O)N2C(C(=O)[O-])=C(C[n+]3ccccc3)CS[C@H]12)c1csc(N)n1)C(=O)O` [CEFTAZIDIME], for which the inhibition result in assay [1], in assay [4] and in assay [7] was “Active” each time. Moreover, the outcome in [2] was inactive. For the same compound, the Activity is recorded as 10% in assay [3] and 20% in assay [6]. Also, the result in [5] was Active. Further, the CFU in assay [8] was over 1 ×10⁶ /ml. In addition, the inhibition entry in assay [9] was “inactive”.
